One series has as its target MDM2. The following applies: read-out: binding affinity towards MDM2 (Kd); ref 22 (Thean et al.); cited from earlier work.
Series [1] can be described thus: Tumor uptake and tissue distribution in mice bearing SJSA-1 xenografts. The series is classed as in vivo, athymic mice. Conditions: athymic, mouse, iv, 166.5 kBq, total radioactivity.
Series [2] in a line: In vivo metabolic stability. The following applies: athymic mice without tumors, i.v., plasma 4 h post-injection; RP-HPLC; n = 2/time point.
A short description of series [3]: Lipophilicity, shake-flask n-octanol/PBS. The series is classed as physicochemical. The following applies: n-octanol/phosphate-buffered saline, pH 7.4.
Series [4] deals with SJSA-1 osteosarcoma cell line (MDM2-amplified, wild-type p53). The series is classed as cell-based, human. Conditions: SJSA-1 cells, 50 μM VIP116, 2 h incubation.
Series [5] deals with SJSA-1 human osteosarcoma xenografts. The series is described as follows: Tumor uptake and tissue distribution in mice bearing SJSA-1 xenografts. The series is classed as in vivo, athymic mice.

The structures appear in SMILES notation.

The source of these data is PMC9940446 (Bioorganic & medicinal chemistry letters, 2022).

As for `CC(=O)N[C@@H](CCCCN)C(=O)NCCCCCC(=O)N[C@H](C(=O)N[C@@H](CO)C(=O)N[C@@H](Cc1ccccc1)C(=O)N[C@]1(C)CCCCCCC=CCCC[C@@](C)(C(=O)N[C@@H](CCC(=O)O)C(=O)N[C@@H](CC(N)=O)C(=O)N[C@@H](Cc2ccccc2)C(N)=O)NC(=O)[C@H](CC(C)C)NC(=O)[C@H](CC(C)C)NC(=O)[C@H](C)NC(=O)[C@H](Cc2c[nH]c3ccccc23)NC(=O)[C@H](Cc2ccc(O)cc2)NC(=O)[C@H](CCC(=O)O)NC1=O)[C@@H](C)O` [VIP116], the Kd on MDM2 is 15.1 ± 1.7 nM.

As for `CC(=O)N[C@@H](CCCCNC(=O)c1cccc(I)c1)C(=O)NCCCCCC(=O)N[C@H](C(=O)N[C@@H](CO)C(=O)N[C@@H](Cc1ccccc1)C(=O)N[C@]1(C)CCCCCCC=CCCC[C@@](C)(C(=O)N[C@@H](CCC(=O)O)C(=O)N[C@@H](CC(N)=O)C(=O)N[C@@H](Cc2ccccc2)C(N)=O)NC(=O)[C@H](CC(C)C)NC(=O)[C@H](CC(C)C)NC(=O)[C@H](C)NC(=O)[C@H](Cc2c[nH]c3ccccc23)NC(=O)[C@H](Cc2ccc(O)cc2)NC(=O)[C@H](CCC(=O)O)NC1=O)[C@@H](C)O` [[*I]SIB-VIP116] [listing 1 of 2 here], the tissue uptake at 0.5 h in series [1] (blood) stood at 8.33 ± 1.18 %ID/g. For the same compound, the tissue uptake at 2 h in series [1] (tumor) was 2.19 ± 0.56 %ID/g.

With `CC(=O)N[C@@H](CCCCNC(=O)c1cccc(I)c1)C(=O)NCCCCCC(=O)N[C@H](C(=O)N[C@@H](CO)C(=O)N[C@@H](Cc1ccccc1)C(=O)N[C@]1(C)CCCCCCC=CCCC[C@@](C)(C(=O)N[C@@H](CCC(=O)O)C(=O)N[C@@H](CC(N)=O)C(=O)N[C@@H](Cc2ccccc2)C(N)=O)NC(=O)[C@H](CC(C)C)NC(=O)[C@H](CC(C)C)NC(=O)[C@H](C)NC(=O)[C@H](Cc2c[nH]c3ccccc23)NC(=O)[C@H](Cc2ccc(O)cc2)NC(=O)[C@H](CCC(=O)O)NC1=O)[C@@H](C)O` [[*I]SIB-VIP116] [listing 2 of 2 here], the “% of radioactivity in plasma as intact labeled peptide” value in series [2] is “about 80%”.

Regarding `CC(=O)N[C@@H](CCCCNC(=O)c1cccc(I)c1)C(=O)NCCCCCC(=O)N[C@H](C(=O)N[C@@H](CO)C(=O)N[C@@H](Cc1ccccc1)C(=O)N[C@]1(C)CCCCCCC=CCCC[C@@](C)(C(=O)N[C@@H](CCC(=O)O)C(=O)N[C@@H](CC(N)=O)C(=O)N[C@@H](Cc2ccccc2)C(N)=O)NC(=O)[C@H](CC(C)C)NC(=O)[C@H](CC(C)C)NC(=O)[C@H](C)NC(=O)[C@H](Cc2c[nH]c3ccccc23)NC(=O)[C@H](Cc2ccc(O)cc2)NC(=O)[C@H](CCC(=O)O)NC1=O)[C@@H](C)O` [[^125I]SIB-VIP116] [listing 1 of 2 here], in series [3], the logD amounted to 1.45 ± 0.05. The tissue uptake at 0.5 h is 0.61 ± 0.21 %ID/g in series [1] (bladder); 0.38 ± 0.19 %ID/g in series [1] (bone); 0.24 ± 0.13 %ID/g in series [1] (brain); 2.52 ± 0.49 %ID/g in series [1] (heart); 3.06 ± 1.82 %ID/g in series [1] (kidneys); 0.06 ± 0.06 %ID/g in series [1] (large intestine). In addition, the tissue uptake at 0.5 h in series [1] (liver) was determined as 13.5 ± 6.18 %ID/g; in series [1] (lungs), 4.27 ± 1.06 %ID/g; in series [1] (muscle), 0.16 ± 0.06 %ID/g; in series [1] (skin), 0.57 ± 0.17 %ID/g; in series [1] (small intestine) it was 0.43 ± 0.09 %ID/g; in series [1] (spleen) it was 1.29 ± 0.61 %ID/g. Moreover, the tissue uptake at 0.5 h amounted to 0.34 ± 0.09 %ID/g in series [1] (stomach), 0.89 ± 0.17 %ID/g in series [1] (thyroid) and 1.8 ± 0.75 %ID/g in series [1] (tumor). In addition, the tissue uptake at 2 h is 0.58 ± 0.34 %ID/g in series [1] (bladder); 6.84 ± 1.92 %ID/g in series [1] (blood); 0.33 ± 0.23 %ID/g in series [1] (bone); 0.25 ± 0.08 %ID/g in series [1] (brain); 2.44 ± 0.49 %ID/g in series [1] (heart); 2.54 ± 0.5 %ID/g in series [1] (kidneys). For the same compound, the tissue uptake at 2 h stood at 0.24 ± 0.2 %ID/g in series [1] (large intestine); 18.4 ± 1.45 %ID/g in series [1] (liver); 2.72 ± 1.16 %ID/g in series [1] (lungs); 0.24 ± 0.07 %ID/g in series [1] (muscle); 0.88 ± 0.18 %ID/g in series [1] (skin); 2.17 ± 0.99 %ID/g in series [1] (small intestine). Besides, the tissue uptake at 2 h in series [1] (spleen) is 1.8 ± 0.65 %ID/g; in series [1] (stomach) it was 0.53 ± 0.17 %ID/g; in series [1] (thyroid) it was 1.14 ± 0.43 %ID/g. Also, the tissue uptake at 6 h in series [1] (bladder) stood at 0.95 ± 0.78 %ID/g; in series [1] (blood), 5.12 ± 0.9 %ID/g; in series [1] (bone), 0.29 ± 0.2 %ID/g; in series [1] (brain), 0.2 ± 0.06 %ID/g; in series [1] (heart) it was 2.14 ± 0.38 %ID/g; in series [1] (kidneys) it was 2.5 ± 0.48 %ID/g. Besides, the tissue uptake at 6 h amounted to 4.44 ± 1.9 %ID/g in series [1] (large intestine); 11.4 ± 4.46 %ID/g in series [1] (liver); 2.49 ± 1.17 %ID/g in series [1] (lungs); 0.25 ± 0.11 %ID/g in series [1] (muscle); 1.22 ± 0.47 %ID/g in series [1] (skin); 3.84 ± 1.29 %ID/g in series [1] (small intestine). Besides, the tissue uptake at 6 h came to 1.99 ± 0.44 %ID/g in series [1] (spleen), 1.9 ± 1.15 %ID/g in series [1] (stomach), 1.19 ± 0.36 %ID/g in series [1] (thyroid) and 2.11 ± 0.29 %ID/g in series [1] (tumor). The tissue uptake at 24 h in series [1] (bladder) was 0.29 ± 0.09 %ID/g; in series [1] (blood) it was 0.62 ± 0.2 %ID/g; in series [1] (bone), 0.16 ± 0.04 %ID/g; in series [1] (brain), 0.02 ± 0.01 %ID/g; in series [1] (heart), 0.37 ± 0.08 %ID/g; in series [1] (kidneys), 0.63 ± 0.12 %ID/g. The tissue uptake at 24 h in series [1] (large intestine) was 1.87 ± 1.29 %ID/g; in series [1] (liver), 4.72 ± 2.84 %ID/g; in series [1] (lungs), 0.33 ± 0.19 %ID/g; in series [1] (muscle) it was 0.16 ± 0.09 %ID/g; in series [1] (skin), 0.52 ± 0.13 %ID/g; in series [1] (small intestine) it was 0.86 ± 0.35 %ID/g. The tissue uptake at 24 h came out at 0.58 ± 0.24 %ID/g in series [1] (spleen), 0.84 ± 0.43 %ID/g in series [1] (stomach), 0.27 ± 0.14 %ID/g in series [1] (thyroid) and 0.36 ± 0.12 %ID/g in series [1] (tumor).

Take `CC(=O)N[C@@H](CCCCNC(=O)c1cccc(I)c1)C(=O)NCCCCCC(=O)N[C@H](C(=O)N[C@@H](CO)C(=O)N[C@@H](Cc1ccccc1)C(=O)N[C@]1(C)CCCCCCC=CCCC[C@@](C)(C(=O)N[C@@H](CCC(=O)O)C(=O)N[C@@H](CC(N)=O)C(=O)N[C@@H](Cc2ccccc2)C(N)=O)NC(=O)[C@H](CC(C)C)NC(=O)[C@H](CC(C)C)NC(=O)[C@H](C)NC(=O)[C@H](Cc2c[nH]c3ccccc23)NC(=O)[C@H](Cc2ccc(O)cc2)NC(=O)[C@H](CCC(=O)O)NC1=O)[C@@H](C)O` [[^125I]SIB-VIP116] [listing 2 of 2 here]: the “blocking of cell uptake” value in series [4] is listed as > 85%. For the same compound, the Blood radioactivity in series [5] (30 min after i.v. injection, n = 5) was determined as 8.33 ± 1.18 %ID/g. In addition, in series [5] (2 h after i.v. injection (data not shown)), the “radioactivity found in the urine” value was ≤ 0.93 % ID. In series [5] (2 h after i.v. injection, n = 5), the “Tumor uptake (SJSA-1 xenograft)” value is recorded as 2.19 ± 0.56 %ID/g.

A word on the Kd: it is the equilibrium constant for the complex coming apart. As usually defined, the tissue uptake is the share of the injected amount in each gram of the tissue. As a reminder, the logD is the decadic logarithm of the distribution of all forms, ionised or not, between an organic phase and buffer at a given pH. A high value points to a more lipophilic compound.
